Patent publication US7317027B2, “Azaindole-derivatives as factor Xa inhibitors” (Sanofi-Aventis Deutschland GmbH, priority 2003, dated 2008)

Target: T1, human factor Xa (Homo sapiens, UniProt P00742)
T1 construct: 25 μl human factor Xa (Enzyme Research Laboratories, Inc; South Bend, Ind.) in TBS-PEG; purchased Enzyme Research Laboratories, Inc; South Bend, Ind
Test: Factor Xa assay (chromogenic, substrate S-2765)
Format: biochemical
Settings: inhibition constant for inhibition of factor Xa; IC50 corrected for substrate competition; 0.5 nM enzyme, 140 μM S-2765, 25° C., pH 7.8; read-out: Ki(FXa)
Description: The ability of the compounds of the formula I to inhibit factor Xa or factor VIIa or other enzymes like thrombin, plasmin, or trypsin can be assessed by determining the concentration of the compound of the formula I that inhibits enzyme activity by 50%, i. e. the IC50 value, which was related to the inhibition constant Ki. Purified enzymes were used in chromogenic assays. The concentration of inhibitor that causes a 50% decrease in the rate of substrate hydrolysis was determined by linear regression after plotting the relative rates of hydrolysis (compared to the uninhibited control) versus the log of the concentration of the compound of formula I. For calculating the inhibition constant Ki, the IC50 value was corrected for competition with substrate using the formula Ki=IC50/{1+(substrate concentration/Km)} wherein Km is the Michaelis-Menten constant (Chen and Prusoff, Biochem. Pharmacol. 22 (1973), 3099-3108; I. H. Segal, Enzyme Kinetics, 1975, John Wiley & Sons, New York, 100-125; which were incorporated herein by reference). a) Factor Xa Assay
In the assay for determining the inhibition of factor Xa activity TBS-PEG buffer (50 mM Tris-HCl, pH 7.8, 200 mM NaCl, 0.05% (w/v) PEG-8000, 0.02% (w/v) NaN3) was used. The IC50 was determined by combining in appropriate wells of a Costar half-area microtiter plate 25 μl human factor Xa (Enzyme Research Laboratories, Inc.; South Bend, Ind.) in TBS-PEG; 40 μl 10% (v/v) DMSO in TBS-PEG (uninhibited control) or various concentrations of the compound to be tested diluted in 10% (v/v) DMSO in TBS-PEG; and substrate S-2765 (N(α)-benzyloxycarbonyl-D-Arg-Gly-L-Arg-p-nitroanilide; Kabi Pharmacia, Inc.; Franklin, Ohio) in TBS-PEG.
The assay was performed by pre-incubating the compound of formula I plus enzyme for 10 min. Then the assay was initiated by adding substrate to obtain a final volume of 100 μl. The initial velocity of chromogenic substrate hydrolysis was measured by the change in absorbance at 405 nm using a Biotek Instruments kinetic plate reader (Ceres UV900HDi) at 25° C. during the linear portion of the time course (usually 1.5 min after addition of substrate). The enzyme concentration was 0.5 nM and substrate concentration was 140 μM.

T1 sequence (P00742 235-488 limits assumed): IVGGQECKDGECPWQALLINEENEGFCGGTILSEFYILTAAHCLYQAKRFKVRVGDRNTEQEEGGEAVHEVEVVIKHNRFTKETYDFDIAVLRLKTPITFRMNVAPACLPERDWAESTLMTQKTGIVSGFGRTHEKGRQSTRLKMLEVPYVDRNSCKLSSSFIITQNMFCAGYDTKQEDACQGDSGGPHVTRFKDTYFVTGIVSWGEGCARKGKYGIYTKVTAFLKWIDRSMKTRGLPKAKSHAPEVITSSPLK
T1 sequence (P00742 41-179 partner limits assumed): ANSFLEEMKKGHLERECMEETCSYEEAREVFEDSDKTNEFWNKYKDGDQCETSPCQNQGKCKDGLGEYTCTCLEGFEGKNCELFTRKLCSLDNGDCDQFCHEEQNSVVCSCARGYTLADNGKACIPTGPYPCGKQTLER

Row | Compound | Ki [nM]
1 | CC(C)N1CCC(NC(=O)c2cc3cc(OCCO)ncc3n2CC(=O)Nc2ccc(Cl)cn2)CC1 [Example 13, 1-[(5-Chloro-pyridin-2-ylcarbamoyl)-methyl]-5-(2-hydroxy-ethoxy)-1H-pyrrolo[2,3-c]pyridine-2-carboxylic acid (1-isopropyl-piperidin-4-yl)-amide] | 44
2 | O=C(O)c1ccc2c(cc(C(=O)NC3CCN(c4ccncc4)CC3)n2Cc2cc(-c3ccc(Cl)s3)on2)n1 [Example 9, 1-[5-(5-Chloro-thiophen-2-yl)-isoxazol-3-ylmethyl]-2-(3,4,5,6-tetrahydro-2H-[1,4′]bipyridyl-4-ylcarbamoyl)-1H-pyrrolo[3,2-b]pyridine-5-carboxylic acid] | 85
3 | COC(=O)c1cnc2c(c1)cc(C(=O)NC1CCN(C(C)C)CC1)n2Cc1cc(-c2ccc(Cl)s2)on1 [Example 2, 1-[5-(5-Chloro-thiophen-2-yl)-isoxazol-3-ylmethyl]-2-(1-isopropyl-piperidin-4-ylcarbamoyl)-1H-pyrrolo[2,3-b]pyridine-5-carboxylic acid methyl ester] | 55
4 | CC(C)N1CCC(NC(=O)c2cc3cc(OCCO)ncc3n2Cc2cc(-c3ccc(Cl)s3)on2)CC1 [Example 11, 1-[5-(5-Chloro-thiophen-2-yl)-isoxazol-3-ylmethyl]-5-(2-hydroxy-ethoxy)-1H-pyrrolo[2,3-c]pyridine-2-carboxylic acid (1-isopropyl-piperidin-4-yl)-amide] | 47
5 | CC(C)N1CCC(NC(=O)c2cc3cc(C(N)=O)cnc3n2Cc2cc(-c3ccc(Cl)s3)on2)CC1 [Example 4, 1-[5-(5-Chloro-thiophen-2-yl)-isoxazol-3-ylmethyl]-1H-pyrrolo[2,3-b]pyridine-2,5-dicarboxylic acid 5-amide 2-[(1-isopropyl-piperidin-4-yl)-amide]] | 70
6 | CC(C)N1CCC(NC(=O)c2cc3cc(C(=O)O)cnc3n2Cc2cc(-c3ccc(Cl)s3)on2)CC1 [Example 3, 1-[5-(5-Chloro-thiophen-2-yl)-isoxazol-3-ylmethyl]-2-(1-isopropyl-piperidin-4-ylcarbamoyl)-1H-pyrrolo[2,3-b]pyridine-5-carboxylic acid] | 67
7 | CC(C)N1CCC(NC(=O)c2cc3[nH]c(=O)ccc3n2Cc2cc(-c3ccc(Cl)s3)on2)CC1 [Example 7, 1-[5-(5-Chloro-thiophen-2-yl)-isoxazol-3-ylmethyl]-5-oxo-4,5-dihydro-1H-pyrrolo[3,2-b]pyridine-2-carboxylic acid (1-isopropyl-piperidin-4-yl)-amide] | 23

Molecules with a lower Ki, results first:

Row | Ki [nM] | Compound
8 | 10 | CC(C)N1CCC(NC(=O)c2cc3nc(C(=O)O)ccc3n2Cc2cc(-c3ccc(Cl)s3)on2)CC1 [Example 6, 1-[5-(5-Chloro-thiophen-2-yl)-isoxazol-3-ylmethyl]-2-(1-isopropyl-piperidin-4-ylcarbamoyl)-1H-pyrrolo[3,2-b]pyridine-5-carboxylic acid]
9 | 6 | CC(C)N1CCC(NC(=O)c2cc3cccnc3n2Cc2cc(-c3ccc(Cl)s3)on2)CC1 [Example 1, 1-[5-(5-Chloro-thiophen-2-yl)-isoxazol-3-ylmethyl]-1H-pyrrolo[2,3-b]pyridine-2-carboxylic acid (1-isopropyl-piperidin-4-yl)-amide]
10 | 4 | CC(C)N1CCC(NC(=O)c2cc3ncccc3n2Cc2cc(-c3ccc(Cl)s3)on2)CC1 [Example 5, 1-[5-(5-Chloro-thiophen-2-yl)-isoxazol-3-ylmethyl]-1H-pyrrolo[3,2-b]pyridine-2-carboxylic acid (1-isopropyl-piperidin-4-yl)-amide]
